In ChEMBL document CHEMBL6103576, “Design, synthesis, and antiviral activity of fragmented-lapatinib aminoquinazoline analogs towards SARS-CoV-2 inhibition” (Eur J Med Chem, 2025):
pEC50, pIC50: −log10 of the molar value.

Legend:
[1] = biological target: Replicase polyprotein 1ab (Severe acute respiratory syndrome coronavirus 2) (UniProt P0DTD1); assay: Inhibition of SARS-CoV-2 MPro using E(EDAS)TSAVLQSGFRK(DABCYL) as substrate at 100 uM by fluorescence based analysis relative to control
[2] = Cytotoxicity against African green monkey Vero E6 cells assessed as cell viability at 50 uM incubated for 48 hrs by CellTiter96 assay relative to control; format: toxicity, cell-based, Vero C1008; conditions: chlorocebus sabaeus, read-out: Activity
SARS-CoV-2 [3] = assay: Antiviral activity against SARS-CoV-2 infected in Vero E6 cells assessed as inhibition of viral replication at 50 uM measured for 72 hrs relative to control; format: functional; conditions: Severe acute respiratory syndrome coronavirus 2, Vero C1008
[4] = biological target: Replicase polyprotein 1ab (Severe acute respiratory syndrome coronavirus 2, UniProt P0DTD1); assay: Inhibition of SARS-CoV-2 MPro using E(EDAS)TSAVLQSGFRK(DABCYL) as substrate by fluorescence based analysis
[5] = Cytotoxicity against African green monkey Vero E6 cells assessed as cell viability incubated for 48 hrs by CellTiter96 assay; format: toxicity, cell-based, Vero C1008; conditions: chlorocebus sabaeus
SARS-CoV-2 [6] = assay: Antiviral activity against SARS-CoV-2 infected in Vero E6 cells assessed as inhibition of viral replication measured for 72 hrs; format: functional, organism-based; conditions: Severe acute respiratory syndrome coronavirus 2, Vero C1008, 72 h
SARS-CoV-2 [7] = assay: Antiviral activity against SARS-CoV-2 infected in Vero E6 cells assessed as inhibition of viral replication at 10 uM measured for 72 hrs relative to control; format: functional; conditions: Severe acute respiratory syndrome coronavirus 2, Vero C1008
Vero C1008 = assay: Cytotoxicity against African green monkey Vero E6 cells assessed as cell viability at 10 uM incubated for 48 hrs by CellTiter96 assay; format: toxicity, cell-based; conditions: chlorocebus sabaeus, vero c1008, 48 h

Row | SMILES | inhibition [1] [%] | viability at 48 h, 50 µM [2] [%] | inhibition at 50 µM (SARS-CoV-2 [3]) [%] | pIC50 [4] | CC50 at 48 h [5] [µM] | pEC50 (SARS-CoV-2 [6]) | inhibition at 10 µM (SARS-CoV-2 [7]) [%] | Activity (Vero C1008)
1 | COc1cccc(NC(=O)c2ccc(COc3ccc(Nc4ncnc5ccccc45)cc3Cl)cc2)c1 | 49.3 | 22.6 | 82.2 |  |  |  |  | 
2 | O=C(Nc1ccccc1F)c1ccc(COc2ccc(Nc3ncnc4ccccc34)cc2Cl)cc1 | 66.4 | 0 | 86.7 |  |  |  |  | 
3 | O=C(Nc1ccccc1Cl)c1ccc(COc2ccc(Nc3ncnc4ccccc34)cc2Cl)cc1 | 30.8 | 3.64 | 57.7 |  |  |  |  | 
4 | O=C(Nc1ccccc1)c1ccc(COc2ccc(Nc3ncnc4ccccc34)cc2Cl)cc1 | 66.3 | 8.05 | 0 |  |  |  |  | 
5 | O=C(Nc1ccc(Cl)cc1)c1cccc(COc2ccc(Nc3ncnc4ccccc34)cc2Cl)c1 | 69.5 | 9.39 | 24.9 |  |  |  |  | 
6 | O=C(Nc1cccc(C(F)(F)F)c1)c1ccc(COc2ccc(Nc3ncnc4ccccc34)cc2Cl)cc1 | 55.7 | 17.3 | 90 |  |  |  |  | 
7 | O=C(Nc1cccc(C(F)(F)F)c1)c1cccc(COc2ccc(Nc3ncnc4ccccc34)cc2Cl)c1 |  | 26.6 | 99 |  |  |  |  | 
8 | O=C(Nc1ccccc1Cl)c1cccc(COc2ccc(Nc3ncnc4ccccc34)cc2Cl)c1 | 53 | 38 | 95.9 |  |  |  |  | 
9 | O=C(Nc1ccccc1)c1cccc(COc2ccc(Nc3ncnc4ccccc34)cc2Cl)c1 | 98 | 1 | 68.4 | 5.43 |  |  |  | 
10 | COc1cccc(NC(=O)c2cccc(COc3ccc(Nc4ncnc5ccccc45)cc3Cl)c2)c1 |  | 8.66 | 92.7 |  |  |  |  | 
11 | O=C(Nc1cccc(I)c1)c1cccc(COc2ccc(Nc3ncnc4ccccc34)cc2Cl)c1 | 55.7 | 21 | 99 |  |  |  |  | 
12 | O=C(Nc1ccc(Cl)cc1)c1ccc(COc2ccc(Nc3ncnc4ccccc34)cc2Cl)cc1 | 73.2 | 0 | 82.2 | 5.32 |  |  |  | 
13 | O=C(Nc1ccccc1F)c1cccc(COc2ccc(Nc3ncnc4ccccc34)cc2Cl)c1 | 68.6 | 13.6 | 96.9 |  | > 100 | 5.96 | 82.2 | 
14 | CS(=O)(=O)CCNCc1ccc(-c2ccc3ncnc(Nc4ccc(OCc5cccc(F)c5)c(Cl)c4)c3c2)o1 [LAPATINIB] | 97.1 | 71.1 | 92.7 |  |  |  | 58.8 | 
15 | Clc1cc(Nc2ncnc3ccccc23)ccc1OCc1cccc(Br)c1 | 82 | 28.1 | 68.4 | 5.36 |  |  |  | 
16 | O=C(Nc1cccc(I)c1)c1ccc(COc2ccc(Nc3ncnc4ccccc34)cc2Cl)cc1 | 87.7 | 0 | 94.5 | 5.04 |  |  |  | 
17 | Clc1cc(Nc2ncnc3ccccc23)ccc1OCc1ccccc1 | 74.6 | 49.3 | 25.1 | 5.40 |  |  |  | 
18 | CCC(CC)COC(=O)[C@H](C)N[P@](=O)(OC[C@H]1OC(C#N)(c2ccc3c(N)ncnn23)[C@H](O)[C@@H]1O)Oc1ccccc1 (some centres undefined) |  |  |  |  |  |  | 99.9 | Non-toxic
19 | Fc1cccc(COc2ccc(Nc3ncnc4ccccc34)cc2Cl)c1 | 82.6 | 44.8 | 43.7 | 5.50 |  |  |  | 
